Test [1] addresses Protein disulfide-isomerase (Homo sapiens, UniProt P07237). Description: inhibition of PDI-driven insulin aggregation – biochemical, turbidity, absorbance, cherry-picked samples, dose response (AID 602350). Format: functional.
For another test, the system named is CHO-K1. Description: Counterscreen for antagonists of the orexin 1 receptor (OX1R; HCRTR1): Homogeneous time resolved fluorescence (HTRF)-based cell-based dose response assay to identify antagonists of the parental CHO-K1 cell line. [Related pubchem assays (depositor defined):AID434989, AID435008, AID463079, AID485270, AID492963, AID492964, AID492965, AID493232, AID504699, AID504701]. Format: functional. The following applies: Cricetulus griseus.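 Further: potency for inhibition of ATP-stimulated IP1 production as antagonists.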

In test [2] the target is T1, Orexin/Hypocretin receptor type 1 (Homo sapiens, UniProt O43613). Description: Fluorescence-based cell-based high throughput dose response assay for antagonists of the orexin 1 receptor (OX1R; HCRTR1). [Related pubchem assays (depositor defined):AID434989, AID435008, AID463079, AID485270, AID492963, AID492964, AID492965, AID493232, AID504717, AID504718]. Format: functional.

Test [3] in a line: Counterscreen for antagonists of the orexin 1 receptor (OX1R; HCRTR1): Fluorescence-based cell-based high throughput dose response assay to identify antagonists of the parental CHO cell line. [Related pubchem assays (depositor defined):AID434989, AID435008, AID463079, AID485270, AID492963, AID492964, AID492965, AID493232, AID504699, AID504701]. Format: functional. In general terms: A counterscreen serves to expose hits that act by an unwanted route or on another target.

Test [4] addresses T2, Orexin receptor type 2 (Homo sapiens, UniProt O43614). Description: Counterscreen assay for antagonists of the orexin 1 receptor (OX1R; HCRTR1): Homogeneous Time Resolved Fluorescence (HTRF)-based cell-based dose response assay for antagonists of the orexin 2 receptor (OX2R; HCRTR2), run by assay provider. Format: functional.
In test [5] the target is T2, Orexin receptor type 2. Description: Counterscreen assay for antagonists of the orexin 1 receptor (OX1R; HCRTR1): Fluorescence-based cell-based dose response assay for antagonists of the orexin 2 receptor (OX2R; HCRTR2), run by assay provider. Format: functional.
In test [6] the target is T1, Orexin/Hypocretin receptor type 1. Description: Homogeneous Time Resolved Fluorescence (HTRF)-based cell-based high throughput dose response assay for antagonists of the orexin 1 receptor (OX1R; HCRTR1). [Related pubchem assays (depositor defined):AID434989, AID435008, AID463079, AID485270, AID492963, AID492964, AID492965, AID493232, AID504717, AID504718]. Format: functional. In general terms: TR-FRET usually uses a lanthanide donor and a delayed reading to cut background.

Test [7] addresses Cell division cycle 7-related protein kinase (Homo sapiens, UniProt O00311). Format: functional.
Test [8] has as its target Glycogen synthase kinase-3 beta (Homo sapiens, UniProt P49841). Format: functional.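 Further: value comes from a broad kinome profiling panel, with GSK3B as the panel member.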
Test [9] deals with Mitogen-activated protein kinase kinase kinase kinase 4 (Homo sapiens, UniProt O95819). Format: functional.
Test [10] concerns the target Cyclin-dependent kinase 2 (Homo sapiens, UniProt P24941). Format: functional.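 Further: CDK2 measured as one member of a broad kinome profiling panel.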
Test [11] addresses Serine/threonine-protein kinase pim-1 (Homo sapiens, UniProt P11309). Format: functional.
For test [12], the target named is Homeodomain-interacting protein kinase 2 (Homo sapiens, UniProt Q9H2X6). Format: functional.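 Further: measured within a kinome-wide kinase profiling panel, HIPK2 being one panel member.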
Test [13] addresses Interleukin-1 receptor-associated kinase 4 (Homo sapiens, UniProt Q9NWZ3). Format: functional.
For test [14], the target named is MAP kinase-interacting serine/threonine-protein kinase 2 (Homo sapiens, UniProt Q9HBH9). Format: functional.
Test [15] addresses cAMP-dependent protein kinase catalytic subunit alpha (Homo sapiens, UniProt P17612). Format: functional.
Test [16] deals with Dual specificity protein kinase CLK4 (Homo sapiens, UniProt Q9HAZ1). Format: functional.
In test [17] the target is Fibroblast growth factor receptor 1 (Homo sapiens, UniProt P11362). Format: functional.
Test [18] has as its target Vascular endothelial growth factor receptor 1 (Homo sapiens, UniProt P17948). Format: functional.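 Further: measured within a kinome-wide profiling panel, FLT1 as the panel member.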
Test [19] addresses Serine/threonine-protein kinase PLK3 (Homo sapiens, UniProt Q9H4B4). Format: functional.
Test [20] deals with Vascular endothelial growth factor receptor 2 (Homo sapiens, UniProt P35968). Format: functional.
Test [21] addresses RAC-alpha serine/threonine-protein kinase (Homo sapiens, UniProt P31749). Format: functional.
Test [22] concerns the target Serine/threonine-protein kinase PLK1 (Homo sapiens, UniProt P53350). Format: functional.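 Further: PLK1 measured as one member of a kinome-wide profiling panel.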
The target of the next test is Insulin receptor (Homo sapiens, UniProt P06213). Format: functional.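 Further: insulin receptor kinase tested as one member of a kinome-wide kinase panel.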
Test [23] concerns the target Macrophage colony-stimulating factor 1 receptor (Homo sapiens, UniProt P07333). Format: functional.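 Further: value comes from the Navigating the Kinome screening panel, CSF1R member.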
The target of test [24] is Non-receptor tyrosine-protein kinase TYK2 (Homo sapiens, UniProt P29597). Format: functional.
Test [25] has as its target ALK tyrosine kinase receptor (Homo sapiens, UniProt Q9UM73). Format: functional.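 Further: ALK tested as one member of a kinase panel screen.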
The target in test [26] is Receptor-type tyrosine-protein kinase FLT3 (Homo sapiens, UniProt P36888). Format: functional.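 Further: FLT3 was tested as one member of a kinome-wide kinase panel.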
Test [27] deals with Proto-oncogene tyrosine-protein kinase receptor Ret (Homo sapiens, UniProt P07949). Format: functional.
Test [28] has as its target Hepatocyte growth factor receptor (Homo sapiens, UniProt P08581). Format: functional.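 Further: kinase panel profiling across the kinome, with MET as the panel member.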
Test [29] concerns the target Serine/threonine-protein kinase PLK4 (Homo sapiens, UniProt O00444). Format: functional.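 Further: PLK4 measured as one member of a kinome-wide kinase profiling panel.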
Test [30] deals with Serine/threonine-protein kinase pim-3 (Homo sapiens, UniProt Q86V86). Format: functional.
The target of test [31] is Serine/threonine-protein kinase Chk1 (Homo sapiens, UniProt O14757). Format: functional.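 Further: measured as one member of a kinome-wide kinase profiling panel.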
Test [32] has as its target Protein-tyrosine kinase 6 (Homo sapiens, UniProt Q13882). Format: functional.
For test [33], the target named is RAC-gamma serine/threonine-protein kinase (Homo sapiens, UniProt Q9Y243). Format: functional.
For test [34], the target named is Dual specificity tyrosine-phosphorylation-regulated kinase 1A (Homo sapiens, UniProt Q13627). Format: functional.
Test [35] has as its target Homeodomain-interacting protein kinase 4 (Homo sapiens, UniProt Q8NE63). Format: functional.
The next test addresses SRSF protein kinase 1 (Homo sapiens, UniProt Q96SB4). Format: functional.
Test [36] addresses Casein kinase I isoform delta (Homo sapiens, UniProt P48730). Format: functional.
Test [37] concerns the target Inhibitor of nuclear factor kappa-B kinase subunit beta (Homo sapiens, UniProt O14920). Format: functional.
The target in another test is Aurora kinase A (Homo sapiens, UniProt O14965). Format: functional.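 Further: value from the Navigating the Kinome kinase panel profiling, panel entry STK6.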
Test [38] addresses Dual specificity tyrosine-phosphorylation-regulated kinase 1A (Rattus norvegicus, UniProt Q63470). Format: biochemical, Homo sapiens.

Active and inactive are the calls of the source.

Chain of Serine/threonine-protein kinase pim-1 (P11309 whole entry): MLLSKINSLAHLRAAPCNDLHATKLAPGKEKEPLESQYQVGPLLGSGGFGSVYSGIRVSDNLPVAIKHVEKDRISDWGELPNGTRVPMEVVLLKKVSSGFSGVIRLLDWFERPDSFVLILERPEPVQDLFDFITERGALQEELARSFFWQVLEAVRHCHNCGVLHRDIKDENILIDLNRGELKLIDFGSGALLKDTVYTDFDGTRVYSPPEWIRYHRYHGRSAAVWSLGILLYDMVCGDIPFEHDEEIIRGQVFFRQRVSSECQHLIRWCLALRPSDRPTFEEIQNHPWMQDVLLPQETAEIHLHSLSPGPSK
T1 sequence (O43613 whole entry): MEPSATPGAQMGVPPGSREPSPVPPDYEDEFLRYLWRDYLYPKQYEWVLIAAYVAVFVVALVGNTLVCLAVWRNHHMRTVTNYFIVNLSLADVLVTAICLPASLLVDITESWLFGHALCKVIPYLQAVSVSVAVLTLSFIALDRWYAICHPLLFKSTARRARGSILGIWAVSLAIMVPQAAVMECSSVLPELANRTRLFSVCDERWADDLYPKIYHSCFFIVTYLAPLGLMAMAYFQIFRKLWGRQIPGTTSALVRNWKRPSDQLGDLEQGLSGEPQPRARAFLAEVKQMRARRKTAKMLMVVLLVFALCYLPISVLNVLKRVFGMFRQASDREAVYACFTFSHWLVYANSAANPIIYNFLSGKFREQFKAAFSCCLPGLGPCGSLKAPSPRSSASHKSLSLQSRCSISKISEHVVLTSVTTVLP
T2 sequence (O43614 whole entry): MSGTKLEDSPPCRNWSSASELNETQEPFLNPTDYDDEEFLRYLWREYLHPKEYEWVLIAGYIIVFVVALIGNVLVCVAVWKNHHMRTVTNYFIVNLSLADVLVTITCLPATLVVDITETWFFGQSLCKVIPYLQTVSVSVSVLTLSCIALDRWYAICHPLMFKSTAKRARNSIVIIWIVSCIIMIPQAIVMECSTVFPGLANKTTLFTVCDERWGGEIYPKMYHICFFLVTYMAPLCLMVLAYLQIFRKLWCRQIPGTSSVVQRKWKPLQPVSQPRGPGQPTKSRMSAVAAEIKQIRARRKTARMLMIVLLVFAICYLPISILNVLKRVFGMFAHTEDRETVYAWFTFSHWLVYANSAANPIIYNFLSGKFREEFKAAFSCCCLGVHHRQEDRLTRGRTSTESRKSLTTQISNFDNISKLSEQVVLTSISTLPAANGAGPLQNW
Chain of Dual specificity protein kinase CLK4 (Q9HAZ1 whole entry): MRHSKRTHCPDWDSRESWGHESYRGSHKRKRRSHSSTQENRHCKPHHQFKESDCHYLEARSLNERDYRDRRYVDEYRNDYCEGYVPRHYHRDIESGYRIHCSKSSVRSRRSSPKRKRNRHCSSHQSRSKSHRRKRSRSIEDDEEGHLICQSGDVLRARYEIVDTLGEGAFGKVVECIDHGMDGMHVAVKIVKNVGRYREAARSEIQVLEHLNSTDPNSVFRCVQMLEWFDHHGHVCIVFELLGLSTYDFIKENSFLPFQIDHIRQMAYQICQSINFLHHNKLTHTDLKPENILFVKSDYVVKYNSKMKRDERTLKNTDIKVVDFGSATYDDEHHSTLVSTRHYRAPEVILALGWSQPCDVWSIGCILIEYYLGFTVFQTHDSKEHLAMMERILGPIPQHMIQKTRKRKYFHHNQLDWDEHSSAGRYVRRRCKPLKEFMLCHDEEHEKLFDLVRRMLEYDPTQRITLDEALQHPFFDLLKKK
Chain of Interleukin-1 receptor-associated kinase 4 (Q9NWZ3 whole entry): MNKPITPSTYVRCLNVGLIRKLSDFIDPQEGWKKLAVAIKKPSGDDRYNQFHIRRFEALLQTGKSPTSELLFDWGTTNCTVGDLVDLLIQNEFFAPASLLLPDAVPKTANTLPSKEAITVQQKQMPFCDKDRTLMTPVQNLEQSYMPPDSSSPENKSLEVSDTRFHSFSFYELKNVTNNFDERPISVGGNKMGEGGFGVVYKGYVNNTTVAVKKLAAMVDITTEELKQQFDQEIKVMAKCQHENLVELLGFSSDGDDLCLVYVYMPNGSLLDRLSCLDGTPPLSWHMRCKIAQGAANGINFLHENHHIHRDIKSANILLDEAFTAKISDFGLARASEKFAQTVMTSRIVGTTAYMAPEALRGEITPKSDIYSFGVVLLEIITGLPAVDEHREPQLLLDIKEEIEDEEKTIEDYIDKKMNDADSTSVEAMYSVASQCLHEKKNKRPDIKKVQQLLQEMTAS
Chain of Mitogen-activated protein kinase kinase kinase kinase 4 (O95819 whole entry): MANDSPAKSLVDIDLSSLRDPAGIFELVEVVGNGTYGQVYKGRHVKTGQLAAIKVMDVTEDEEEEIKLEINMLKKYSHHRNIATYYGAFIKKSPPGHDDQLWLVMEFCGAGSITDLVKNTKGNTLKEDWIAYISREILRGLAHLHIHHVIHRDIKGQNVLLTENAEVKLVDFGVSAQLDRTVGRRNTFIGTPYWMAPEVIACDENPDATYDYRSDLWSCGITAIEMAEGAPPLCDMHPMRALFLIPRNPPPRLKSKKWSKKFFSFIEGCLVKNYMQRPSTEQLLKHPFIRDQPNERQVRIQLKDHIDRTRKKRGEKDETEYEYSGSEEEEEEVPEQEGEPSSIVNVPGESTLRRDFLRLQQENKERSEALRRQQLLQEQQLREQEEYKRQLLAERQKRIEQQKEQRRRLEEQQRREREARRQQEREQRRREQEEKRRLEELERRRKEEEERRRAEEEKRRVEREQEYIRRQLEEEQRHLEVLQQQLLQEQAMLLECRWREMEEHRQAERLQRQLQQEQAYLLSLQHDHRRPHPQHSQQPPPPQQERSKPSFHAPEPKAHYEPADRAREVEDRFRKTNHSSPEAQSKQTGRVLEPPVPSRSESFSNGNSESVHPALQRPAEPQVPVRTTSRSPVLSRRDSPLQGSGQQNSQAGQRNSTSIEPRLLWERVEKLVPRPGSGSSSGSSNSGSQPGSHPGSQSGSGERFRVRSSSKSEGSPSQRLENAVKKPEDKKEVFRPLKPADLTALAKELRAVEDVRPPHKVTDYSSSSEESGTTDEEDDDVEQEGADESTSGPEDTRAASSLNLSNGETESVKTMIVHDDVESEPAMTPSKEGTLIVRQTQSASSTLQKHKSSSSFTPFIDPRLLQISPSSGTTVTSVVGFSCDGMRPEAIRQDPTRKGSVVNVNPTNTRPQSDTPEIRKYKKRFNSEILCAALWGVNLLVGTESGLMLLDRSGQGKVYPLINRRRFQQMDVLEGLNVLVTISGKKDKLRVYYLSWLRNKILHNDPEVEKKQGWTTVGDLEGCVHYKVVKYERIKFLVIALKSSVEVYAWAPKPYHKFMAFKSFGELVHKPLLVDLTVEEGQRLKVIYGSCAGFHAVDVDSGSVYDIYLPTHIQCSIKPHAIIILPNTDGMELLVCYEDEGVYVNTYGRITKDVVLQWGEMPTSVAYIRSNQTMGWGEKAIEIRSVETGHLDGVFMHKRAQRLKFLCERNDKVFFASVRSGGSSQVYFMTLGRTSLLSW
Chain of RAC-gamma serine/threonine-protein kinase (Q9Y243 whole entry): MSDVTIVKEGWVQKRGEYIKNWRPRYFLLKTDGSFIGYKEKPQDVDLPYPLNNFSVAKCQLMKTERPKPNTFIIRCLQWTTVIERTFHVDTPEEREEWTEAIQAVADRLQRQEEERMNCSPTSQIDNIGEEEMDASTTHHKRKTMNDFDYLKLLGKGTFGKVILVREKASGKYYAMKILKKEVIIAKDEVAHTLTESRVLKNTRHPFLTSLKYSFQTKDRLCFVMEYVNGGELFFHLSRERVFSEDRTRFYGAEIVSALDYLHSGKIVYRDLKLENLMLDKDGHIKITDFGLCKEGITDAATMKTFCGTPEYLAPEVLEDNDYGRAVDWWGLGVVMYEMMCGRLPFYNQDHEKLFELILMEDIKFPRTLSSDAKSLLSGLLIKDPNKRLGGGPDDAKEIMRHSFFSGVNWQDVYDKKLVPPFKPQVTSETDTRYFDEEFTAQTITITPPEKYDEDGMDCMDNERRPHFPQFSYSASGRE
Chain of Serine/threonine-protein kinase PLK1 (P53350 whole entry): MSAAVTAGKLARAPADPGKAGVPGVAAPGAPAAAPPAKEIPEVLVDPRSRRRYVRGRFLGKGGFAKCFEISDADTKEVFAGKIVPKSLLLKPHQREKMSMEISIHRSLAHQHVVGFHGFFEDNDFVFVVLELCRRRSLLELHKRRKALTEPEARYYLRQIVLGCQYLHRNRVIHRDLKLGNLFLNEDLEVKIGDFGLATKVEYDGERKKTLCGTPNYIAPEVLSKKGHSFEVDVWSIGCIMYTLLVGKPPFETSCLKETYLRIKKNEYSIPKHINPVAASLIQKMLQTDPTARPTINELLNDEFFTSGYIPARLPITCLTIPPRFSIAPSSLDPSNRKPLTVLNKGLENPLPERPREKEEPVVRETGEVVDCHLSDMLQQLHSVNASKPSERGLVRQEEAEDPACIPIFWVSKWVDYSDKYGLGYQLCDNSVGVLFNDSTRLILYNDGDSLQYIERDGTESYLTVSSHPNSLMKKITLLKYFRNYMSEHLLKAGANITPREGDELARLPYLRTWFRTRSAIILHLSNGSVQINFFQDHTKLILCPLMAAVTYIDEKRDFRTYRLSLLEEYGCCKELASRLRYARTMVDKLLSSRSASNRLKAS
Chain of Serine/threonine-protein kinase Chk1 (O14757 whole entry): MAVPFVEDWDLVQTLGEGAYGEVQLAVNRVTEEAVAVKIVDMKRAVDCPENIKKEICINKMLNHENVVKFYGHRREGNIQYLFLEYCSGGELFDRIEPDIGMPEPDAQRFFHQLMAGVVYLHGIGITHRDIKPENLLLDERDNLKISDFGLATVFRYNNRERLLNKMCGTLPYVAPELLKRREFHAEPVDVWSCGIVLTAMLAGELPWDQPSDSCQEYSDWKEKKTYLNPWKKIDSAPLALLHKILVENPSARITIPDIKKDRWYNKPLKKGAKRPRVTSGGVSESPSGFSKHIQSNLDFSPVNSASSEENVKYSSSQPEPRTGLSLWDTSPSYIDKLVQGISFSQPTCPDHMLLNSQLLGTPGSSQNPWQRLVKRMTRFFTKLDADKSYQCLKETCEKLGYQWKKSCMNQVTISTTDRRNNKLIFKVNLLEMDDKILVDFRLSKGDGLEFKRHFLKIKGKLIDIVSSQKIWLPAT

For orientation: AC50 means the concentration giving half of the maximal activity seen. Consider `CC(C)Sc1nnc([C@H](Cc2c[nH]c3ccccc23)NC(=O)OC(C)(C)C)o1`, for which the AC50 in test [1] is 19.5 µM (active).
In general, IC50 refers to the concentration at which inhibition is half-maximal. With `Cc1ccc(NC2=NC(=O)/C(=C/c3cccn3C)S2)cc1C`, the IC50 with CHO-K1 is > 66.2 µM (inactive); in test [2] it was 2.24 µM (active); in [3], > 49.7 µM (inactive); at Orexin receptor type 2 [4], > 50 µM (inactive); at Orexin receptor type 2 [5], > 88.8 µM (inactive); in [6] it was 2.2 µM (active).
What is called Ki is the equilibrium dissociation constant of an inhibitor or competing ligand from its target. Turning to `Cc1sc2[nH]c(=O)n3nc(-c4ccncc4)nc3c2c1C`, the Ki in test [7] is 0.02 µM (active); in [8] it was 0.631 µM (active); in test [9] it was 5.01 µM (active); in [10], > 7.94 µM (inactive); in test [11], 0.794 µM (active); in test [12], 2 µM (active). For the same molecule, the Ki in test [13] was > 10 µM (inactive); in test [14], > 10 µM (inactive); in [15], > 7.94 µM (inactive); in test [16], 1.26 µM (active).
On to `Nc1nnc2ccc(-c3ccccc3)cn12`, for which the Ki is 10 µM (active) in [17]; 2 µM (active) in test [18]; > 79.4 µM (inactive) in [19]; 15.8 µM (active) in [20]; > 79.4 µM (inactive) in [21]; > 79.4 µM (inactive) in test [22]. For the same molecule, the Ki is > 50.1 µM (inactive) on Insulin receptor; 10 µM (active) in [11]; > 25.1 µM (inactive) in test [23]; > 20 µM (inactive) in [24]; 12.6 µM (active) in [25]; 5.01 µM (active) in [26]. Moreover, the Ki is 10 µM (active) in test [27]; > 31.6 µM (inactive) in [28]; > 39.8 µM (inactive) in [29]; 12.6 µM (active) in [30]; > 79.4 µM (inactive) in test [31]; > 25.1 µM (inactive) in test [32]. Further, the Ki in test [33] is > 100 µM (inactive).
Take `CC(C)n1cnc2c(NCc3ccccc3)nc(NCCO)nc21`: the inhibition constant Ki is 3.16 µM (active) in test [34]; 2 µM (active) in test [35]; 2.51 µM (active) in test [16]; 6.31 µM (active) at SRSF protein kinase 1; 2.51 µM (active) in test [36].
On to `c1ccc2c(c1)[nH]c1cnccc12` [NORHARMANE], for which the values for the Ki (in [37]; in test [11]; at Aurora kinase A) were 7.94 µM (active), 6.31 µM (active) and 15.8 µM (active), respectively. Further, in [38], the AC50 was 8.75 µM (active).

Values taken from ChEMBL document CHEMBL1201862, “PubChem BioAssay data set” (2004).
